Results reported in US9845330B2, “6-nitro-2,3-dihydroimidazo[2,1-b]oxazoles and a process for the preparation thereof” (priority 2013, dated 2017).
Values after ≈ are worked out from the molar mass of the structure shown.

What was measured:
[1] = test system: M. tuberculosis XDR (resistant to isoniazid, rifampicin, amikacin and moxifloxacin); assay: microbe, parasite or virus in culture; assay type: cell-based; details: Mycobacterium tuberculosis, 504 h, read-out: MIC M. tb XDR
[2] = test system: M. tuberculosis MDR (resistant to isoniazid and rifampicin); assay: microbe, parasite or virus in culture; assay type: cell-based; details: Mycobacterium tuberculosis, 504 h, read-out: MIC M. tb MDR

SMILES: C[C@]1(COc2ccc(-n3cc(-c4ccccc4)nn3)cc2)Cn2cc([N+](=O)[O-])nc2O1 [IA1]
- MIC [1]: 4 µg/mL (≈ 9.56 µM)
- MIC [2]: 4 µg/mL (≈ 9.56 µM)

SMILES: CCc1ccc(-c2cn(-c3ccc(OC[C@@]4(C)Cn5cc([N+](=O)[O-])nc5O4)cc3)nn2)cc1 [IA2, (R)-2-{4-[4-(4-ethylphenyl)-1H-1,2,3-triazol-1-yl]phenoxymethyl}-2,3-dihydro-2-methyl-6-nitroimidazo[2,1-b]oxazole]
- MIC [1]: 4 µg/mL (≈ 8.96 µM)
- MIC [2]: 4 µg/mL (≈ 8.96 µM)

SMILES: C[C@]1(COc2ccc(-n3cc(-c4ccc(F)cc4)nn3)cc2)Cn2cc([N+](=O)[O-])nc2O1 [IA3, (R)-2-{4-[4-(4-fluorophenyl)-1H-1,2,3-triazol-1-yl]phenoxymethyl}-2,3-dihydro-2-methyl-6-nitroimidazo[2,1-b]oxazole]
- MIC [1]: 0.25 µg/mL (≈ 0.573 µM)
- MIC [2]: 0.25 µg/mL (≈ 0.573 µM)

SMILES: C[C@]1(COc2ccc(-n3cc(-c4ccccc4F)nn3)cc2)Cn2cc([N+](=O)[O-])nc2O1 [IA4, (R)-2-{4-[4-(2-fluorophenyl)-1H-1,2,3-triazol-1-yl]phenoxymethyl}-2,3-dihydro-2-methyl-6-nitroimidazo[2,1-b]oxazole]
- MIC [1]: 2 µg/mL (≈ 4.58 µM)
- MIC [2]: 2 µg/mL (≈ 4.58 µM)

SMILES: C[C@]1(COc2ccc(-n3cc(-c4ccc(OC(F)(F)F)cc4)nn3)cc2)Cn2cc([N+](=O)[O-])nc2O1 [IA5, (R)-2-{4-[4-(4-trifluoromethoxyphenyl)-1H-1,2,3-triazol-1-yl]phenoxymethyl}-2,3-dihydro-2-methyl-6-nitroimidazo[2,1-b]oxazole]
- MIC [1]: 0.5 µg/mL (≈ 0.995 µM)
- MIC [2]: 0.5 µg/mL (≈ 0.995 µM)

SMILES: C[C@]1(COc2ccc(-n3cc(-c4ccccc4C(F)(F)F)nn3)cc2)Cn2cc([N+](=O)[O-])nc2O1 [IA6, (R)-2-{4-[4-(2-trifluoromethylphenyl)-1H-1,2,3-triazol-1-yl]phenoxymethyl}-2,3-dihydro-2-methyl-6-nitroimidazo[2,1-b]oxazole]
- MIC [1]: 1 µg/mL (≈ 2.06 µM)
- MIC [2]: 1 µg/mL (≈ 2.06 µM)

SMILES: C[C@]1(COc2ccc(-n3cc(-c4ccc(F)cc4F)nn3)cc2)Cn2cc([N+](=O)[O-])nc2O1 [IA7, (R)-2-{4-[4-(2,4-difluorophenyl)-1H-1,2,3-triazol-1-yl]phenoxymethyl}-2,3-dihydro-2-methyl-6-nitroimidazo[2,1-b]oxazole]
- MIC [1]: 2 µg/mL (≈ 4.4 µM)
- MIC [2]: 2 µg/mL (≈ 4.4 µM)

SMILES: Cc1ccc(-c2cn(-c3ccc(OC[C@@]4(C)Cn5cc([N+](=O)[O-])nc5O4)cc3)nn2)cc1 [IA8, (R)-2-{4-[4-(4-methylphenyl)-1H-1,2,3-triazol-1-yl]phenoxymethyl}-2,3-dihydro-2-methyl-6-nitroimidazo[2,1-b]oxazole]
- MIC [1]: 1 µg/mL (≈ 2.31 µM)
- MIC [2]: 1 µg/mL (≈ 2.31 µM)

SMILES: CC(C)c1ccc(-c2cn(-c3ccc(OC[C@@]4(C)Cn5cc([N+](=O)[O-])nc5O4)cc3)nn2)cc1 [IA9, (R)-2-{4-[4-(4-isopropylphenyl)-1H-1,2,3-triazol-1-yl]phenoxymethyl}-2,3-dihydro-2-methyl-6-nitroimidazo[2,1-b]oxazole]
- MIC [1]: 1 µg/mL (≈ 2.17 µM)
- MIC [2]: 1 µg/mL (≈ 2.17 µM)

SMILES: C[C@]1(COc2ccc(-n3cc(-c4cccc(F)c4)nn3)cc2)Cn2cc([N+](=O)[O-])nc2O1 [IA10, (R)-2-{4-[4-(3-fluorophenyl)-1H-1,2,3-triazol-1-yl]phenoxymethyl}-2,3-dihydro-2-methyl-6-nitroimidazo[2,1-b]oxazole]
- MIC [1]: 2 µg/mL (≈ 4.58 µM)
- MIC [2]: 2 µg/mL (≈ 4.58 µM)

SMILES: COc1ccc(-c2cn(-c3ccc(OC[C@@]4(C)Cn5cc([N+](=O)[O-])nc5O4)cc3)nn2)cc1 [IA11, (R)-2-{4-[4-(4-methoxyphenyl)-1H-1,2,3-triazol-1-yl]phenoxymethyl}-2,3-dihydro-2-methyl-6-nitroimidazo[2,1-b]oxazole]
- MIC [1]: 0.25 µg/mL (≈ 0.557 µM)
- MIC [2]: 0.25 µg/mL (≈ 0.557 µM)

SMILES: C[C@]1(COc2ccc(-n3cc(-c4cccc(OC(F)(F)F)c4)nn3)cc2)Cn2cc([N+](=O)[O-])nc2O1 [IA12, (R)-2-{4-[4-(3-trifluoromethoxyphenyl)-1H-1,2,3-triazol-1-yl]phenoxymethyl}-2,3-dihydro-2-methyl-6-nitroimidazo[2,1-b]oxazole]
- MIC [1]: 0.5 µg/mL (≈ 0.995 µM)
- MIC [2]: 0.5 µg/mL (≈ 0.995 µM)

SMILES: C[C@]1(COc2ccc(-n3cc(-c4cccc(C(F)(F)F)c4)nn3)cc2)Cn2cc([N+](=O)[O-])nc2O1 [IA13, (R)-2-{4-[4-(3-trifluoromethylphenyl)-1H-1,2,3-triazol-1-yl]phenoxymethyl}-2,3-dihydro-2-methyl-6-nitroimidazo[2,1-b]oxazole]
- MIC [1]: 2 µg/mL (≈ 4.11 µM)
- MIC [2]: 2 µg/mL (≈ 4.11 µM)

SMILES: C[C@]1(COc2ccc(-n3cc(-c4ccccn4)nn3)cc2)Cn2cc([N+](=O)[O-])nc2O1 [IA14]
- MIC [1]: 2 µg/mL (≈ 4.77 µM)
- MIC [2]: 2 µg/mL (≈ 4.77 µM)

SMILES: CCCCCc1cn(-c2ccc(OC[C@@]3(C)Cn4cc([N+](=O)[O-])nc4O3)cc2)nn1 [IA15, (R)-2-{4-[4-pentyl-1H-1,2,3-triazol-1-yl]phenoxymethyl}-2,3-dihydro-2-methyl-6-nitroimidazo[2,1-b]oxazole]
- MIC [1]: 32 µg/mL (≈ 77.6 µM)
- MIC [2]: 32 µg/mL (≈ 77.6 µM)

SMILES: CCCCCCCc1cn(-c2ccc(OC[C@@]3(C)Cn4cc([N+](=O)[O-])nc4O3)cc2)nn1 [IA16, (R)-2-{4-[4-heptyl-1H-1,2,3-triazol-1-yl]phenoxymethyl}-2,3-dihydro-2-methyl-6-nitroimidazo[2,1-b]oxazole]
- MIC [1]: 4 µg/mL (≈ 9.08 µM)
- MIC [2]: 4 µg/mL (≈ 9.08 µM)

SMILES: C[C@]1(COc2cccc(-n3cc(-c4ccc(F)cc4)nn3)c2)Cn2cc([N+](=O)[O-])nc2O1 [IA17, (R)-2-{3-[4-(4-fluorophenyl)-1H-1,2,3-triazol-1-yl]phenoxymethyl}-2,3-dihydro-2-methyl-6-nitroimidazo[2,1-b]oxazole]
- MIC [1]: 2 µg/mL (≈ 4.58 µM)
- MIC [2]: 2 µg/mL (≈ 4.58 µM)

SMILES: C[C@]1(COc2cccc(-n3cc(-c4ccc(C(F)(F)F)cc4)nn3)c2)Cn2cc([N+](=O)[O-])nc2O1 [IA18, (R)-2-{3-[4-(4-trifluoromethylphenyl)-1H-1,2,3-triazol-1-yl]phenoxymethyl}-2,3-dihydro-2-methyl-6-nitroimidazo[2,1-b]oxazole]
- MIC [1]: 2 µg/mL (≈ 4.11 µM)
- MIC [2]: 2 µg/mL (≈ 4.11 µM)

SMILES: C[C@]1(COc2cccc(-n3cc(-c4ccc(OC(F)(F)F)cc4)nn3)c2)Cn2cc([N+](=O)[O-])nc2O1 [IA19, (R)-2-{3-[4-(4-trifluoromethoxyphenyl)-1H-1,2,3-triazol-1-yl]phenoxymethyl}-2,3-dihydro-2-methyl-6-nitroimidazo[2,1-b]oxazole]
- MIC [1]: 4 µg/mL (≈ 7.96 µM)
- MIC [2]: 4 µg/mL (≈ 7.96 µM)

SMILES: C[C@]1(COc2cccc(-n3cc(-c4ccc(F)cc4F)nn3)c2)Cn2cc([N+](=O)[O-])nc2O1 [IA20, (R)-2-{3-[4-(2,4-difluorophenyl)-1H-1,2,3-triazol-1-yl]phenoxymethyl}-2,3-dihydro-2-methyl-6-nitroimidazo[2,1-b]oxazole]
- MIC [1]: 4 µg/mL (≈ 8.8 µM)
- MIC [2]: 4 µg/mL (≈ 8.8 µM)

SMILES: C[C@]1(COc2ccccc2-n2cc(-c3ccc(F)cc3)nn2)Cn2cc([N+](=O)[O-])nc2O1 [IA21, (R)-2-{2-[4-(4-fluorophenyl)-1H-1,2,3-triazol-1-yl]phenoxymethyl}-2,3-dihydro-2-methyl-6-nitroimidazo[2,1-b]oxazole]
- MIC [1]: 1 µg/mL (≈ 2.29 µM)
- MIC [2]: 1 µg/mL (≈ 2.29 µM)

SMILES: C[C@]1(COc2ccccc2-n2cc(-c3ccc(C(F)(F)F)cc3)nn2)Cn2cc([N+](=O)[O-])nc2O1 [IA22, (R)-2-{2-[4-(4-trifluoromethylphenyl)-1H-1,2,3-triazol-1-yl]phenoxymethyl}-2,3-dihydro-2-methyl-6-nitroimidazo[2,1-b]oxazole]
- MIC [1]: 4 µg/mL (≈ 8.22 µM)
- MIC [2]: 4 µg/mL (≈ 8.22 µM)

SMILES: C[C@]1(COc2ccccc2-n2cc(-c3ccc(OC(F)(F)F)cc3)nn2)Cn2cc([N+](=O)[O-])nc2O1 [IA23, (R)-2-{2-[4-(4-trifluoromethoxyphenyl)-1H-1,2,3-triazol-1-yl]phenoxymethyl}-2,3-dihydro-2-methyl-6-nitroimidazo[2,1-b]oxazole]
- MIC [1]: 4 µg/mL (≈ 7.96 µM)
- MIC [2]: 4 µg/mL (≈ 7.96 µM)

SMILES: C[C@]1(COc2ccccc2-n2cc(-c3ccc(F)cc3F)nn2)Cn2cc([N+](=O)[O-])nc2O1 [IA24, (R)-2-{2-[4-(2,4-difluorophenyl)-1H-1,2,3-triazol-1-yl]phenoxymethyl}-2,3-dihydro-2-methyl-6-nitroimidazo[2,1-b]oxazole]
- MIC [1]: 1 µg/mL (≈ 2.2 µM)
- MIC [2]: 1 µg/mL (≈ 2.2 µM)

SMILES: C[C@]1(COc2ccc(-n3cc(COc4ccc(OC(F)(F)F)cc4)nn3)cc2)Cn2cc([N+](=O)[O-])nc2O1 [IA25]
- MIC [1]: 0.12 µg/mL (≈ 0.225 µM)
- MIC [2]: 0.12 µg/mL (≈ 0.225 µM)

SMILES: C[C@]1(COc2ccc(-n3cc(COc4ccc(F)cc4)nn3)cc2)Cn2cc([N+](=O)[O-])nc2O1 [IA26]
- MIC [1]: 0.5 µg/mL (≈ 1.07 µM)
- MIC [2]: 0.5 µg/mL (≈ 1.07 µM)

SMILES: C[C@]1(COc2ccc(-n3cc(COc4ccc(C(F)(F)F)cc4)nn3)cc2)Cn2cc([N+](=O)[O-])nc2O1 [IA27]
- MIC [1]: 0.25 µg/mL (≈ 0.484 µM)
- MIC [2]: 0.25 µg/mL (≈ 0.484 µM)

SMILES: C[C@]1(COc2ccc(-n3cc(COc4ccccc4F)nn3)cc2)Cn2cc([N+](=O)[O-])nc2O1 [IA28]
- MIC [1]: 0.12 µg/mL (≈ 0.257 µM)
- MIC [2]: 0.12 µg/mL (≈ 0.257 µM)

SMILES: Cc1ccc(OCc2cn(-c3ccc(OC[C@@]4(C)Cn5cc([N+](=O)[O-])nc5O4)cc3)nn2)cc1 [IA29]
- MIC [1]: 32 µg/mL (≈ 69.2 µM)
- MIC [2]: 32 µg/mL (≈ 69.2 µM)

SMILES: CC(C)c1ccc(OCc2cn(-c3ccc(OC[C@@]4(C)Cn5cc([N+](=O)[O-])nc5O4)cc3)nn2)cc1 [IA30]
- MIC [1]: 32 µg/mL (≈ 65.2 µM)
- MIC [2]: 32 µg/mL (≈ 65.2 µM)

SMILES: CCc1ccc(OCc2cn(-c3ccc(OC[C@@]4(C)Cn5cc([N+](=O)[O-])nc5O4)cc3)nn2)cc1 [IA31]
- MIC [1]: 0.25 µg/mL (≈ 0.525 µM)
- MIC [2]: 0.25 µg/mL (≈ 0.525 µM)

SMILES: CCC(C)c1ccc(OCc2cn(-c3ccc(OC[C@@]4(C)Cn5cc([N+](=O)[O-])nc5O4)cc3)nn2)cc1 (some centres unmarked) [IA32]
- MIC [1]: 0.12 µg/mL (≈ 0.238 µM)
- MIC [2]: 0.12 µg/mL (≈ 0.238 µM)

SMILES: C[C@]1(COc2cccc(-n3cc(COc4ccc(OC(F)(F)F)cc4)nn3)c2)Cn2cc([N+](=O)[O-])nc2O1 [IA33]
- MIC [1]: 0.12 µg/mL (≈ 0.225 µM)
- MIC [2]: 0.12 µg/mL (≈ 0.225 µM)

SMILES: C[C@]1(COc2cccc(-n3cc(COc4ccc(F)cc4)nn3)c2)Cn2cc([N+](=O)[O-])nc2O1 [IA34]
- MIC [1]: 0.12 µg/mL (≈ 0.257 µM)
- MIC [2]: 0.12 µg/mL (≈ 0.257 µM)

SMILES: C[C@]1(COc2cccc(-n3cc(COc4ccc(C(F)(F)F)cc4)nn3)c2)Cn2cc([N+](=O)[O-])nc2O1 [IA35]
- MIC [1]: 2 µg/mL (≈ 3.87 µM)
- MIC [2]: 2 µg/mL (≈ 3.87 µM)

SMILES: C[C@]1(COc2cccc(-n3cc(COc4ccccc4F)nn3)c2)Cn2cc([N+](=O)[O-])nc2O1 [IA36]
- MIC [1]: 2 µg/mL (≈ 4.29 µM)
- MIC [2]: 2 µg/mL (≈ 4.29 µM)

SMILES: Cc1ccc(OCc2cn(-c3cccc(OC[C@@]4(C)Cn5cc([N+](=O)[O-])nc5O4)c3)nn2)cc1 [IA37]
- MIC [1]: 4 µg/mL (≈ 8.65 µM)
- MIC [2]: 4 µg/mL (≈ 8.65 µM)
